Earlier results, collected in US20140172387A1, “PREDICTION OF MOLECULAR BIOACTIVATION” (Genentech, Inc., priority 2012, published 2014).
Values after ≈ are worked out from the molar mass of the structure shown. Read-outs that look alike come from different tables or passages of the source. Each block holds one compound with its values, some of them ahead of it.

Columns and labels:
[1] = not given; remark: listed apart in the source
[2] = target: insect nicotinic acetylcholine receptor (nAChR); details: for IC50: insect nAChR
α4β2 mammalian nAChR = α4β2 mammalian nAChR (Homo sapiens, UniProt P17787+P43681)
Chain of α4β2 mammalian nAChR (P43681 29-627 limits assumed): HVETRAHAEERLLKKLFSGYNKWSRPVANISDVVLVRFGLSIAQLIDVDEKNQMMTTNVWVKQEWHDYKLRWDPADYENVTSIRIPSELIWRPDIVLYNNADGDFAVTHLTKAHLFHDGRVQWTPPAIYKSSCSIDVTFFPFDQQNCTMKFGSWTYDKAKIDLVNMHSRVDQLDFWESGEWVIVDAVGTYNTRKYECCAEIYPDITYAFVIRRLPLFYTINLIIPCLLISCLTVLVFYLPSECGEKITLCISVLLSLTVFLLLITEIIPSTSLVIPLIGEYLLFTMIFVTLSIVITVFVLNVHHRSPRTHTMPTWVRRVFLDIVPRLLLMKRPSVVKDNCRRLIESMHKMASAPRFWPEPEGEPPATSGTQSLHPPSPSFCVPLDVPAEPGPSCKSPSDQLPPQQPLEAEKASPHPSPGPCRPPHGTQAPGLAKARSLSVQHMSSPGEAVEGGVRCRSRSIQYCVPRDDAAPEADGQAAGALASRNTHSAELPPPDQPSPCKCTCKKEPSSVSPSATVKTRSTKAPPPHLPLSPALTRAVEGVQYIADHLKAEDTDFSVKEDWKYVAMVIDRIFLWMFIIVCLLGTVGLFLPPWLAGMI
Chain of α4β2 mammalian nAChR (P17787 26-502): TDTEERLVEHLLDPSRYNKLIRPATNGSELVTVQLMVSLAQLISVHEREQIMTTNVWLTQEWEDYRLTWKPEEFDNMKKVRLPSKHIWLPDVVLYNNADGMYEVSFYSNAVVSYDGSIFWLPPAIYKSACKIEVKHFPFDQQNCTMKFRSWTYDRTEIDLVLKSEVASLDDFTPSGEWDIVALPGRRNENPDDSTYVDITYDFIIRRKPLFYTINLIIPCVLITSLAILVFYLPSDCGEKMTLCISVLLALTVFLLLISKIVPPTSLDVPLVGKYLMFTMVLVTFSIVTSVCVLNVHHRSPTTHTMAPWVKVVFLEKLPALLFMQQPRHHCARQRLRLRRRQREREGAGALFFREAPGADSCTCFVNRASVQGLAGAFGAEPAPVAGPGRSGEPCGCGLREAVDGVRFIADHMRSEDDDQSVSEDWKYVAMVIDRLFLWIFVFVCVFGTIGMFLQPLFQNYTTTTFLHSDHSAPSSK

water solubility (experimental data) (at pH 7): 6.41 µg/mL (≈ 0.0136 mM)
Compound: CCc1nn(CCCN2CCN(c3cccc(Cl)c3)CC2)c(=O)n1CCOc1ccccc1 [Nefazodone (1), 1-(3-[4-(3-chlorophenyl)piperazin-1-yl]propyl)-3-ethyl-4-(2-phenoxyethyl)-1H-1,2,4-triazol-5(4H)-one]

excreted unchanged in urine [1]: up to 9 % of therapeutic dose | water solubility (experimental data) (at 20° C): 12780 µg/mL (≈ 84.5 mM)
Compound: CC(=O)Nc1ccc(O)cc1 [acetaminophen (1), N-acetyl-para-aminophenol]

Compound: O=[N+]([O-])NC1=NCCN1Cc1ccc(Cl)nc1 [imidacloprid (1), N-[1-[(6-Chloro-3-pyridyl)methyl]-4,5-dihydroimidazol-2-yl]nitramide]
IC50 [2]: 4.6 nM | selectivity for the insect vs. the α4β2 mammalian nAChR ([2]; insect vs. mammalian α4β2 nAChR): > 500 fold | IC50 (α4β2 mammalian nAChR): 2600 nM

Compound: N=C1NCCN1Cc1ccc(Cl)nc1 [imidacloprid-NH (6), imidacloprid-NH]
IC50 [2]: 1530 nM | IC50 (α4β2 mammalian nAChR; read-out: IC50): 8.2 nM

Compound: C=CCl [vinyl chloride (1), chloroethene]
water solubility (experimental data): 2700 µg/mL
